Reference: PubChem BioAssay (NCI)
Values joined by “and” are separate entries in the source; they are usually repeats but may differ in a detail not shown here. Identical values can stand only once.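 A five-concentration, 48-hour dose response in 96-well plates underlies each endpoint, interpolated linearly between surrounding concentrations. The concentration for 50% growth inhibition is given as GI50. The concentration for full growth arrest is given as TGI.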

Columns and labels:
Assay in all cases: NCI tumour cell line growth inhibition, 48 h
DLD-1 colon = system: DLD-1 colon
NCI-H522 lung = system: NCI-H522 lung
OVCAR-3 ovarian = system: OVCAR-3 ovarian
SF-539 CNS = system: SF-539 CNS
SF-268 CNS = system: SF-268 CNS
KM12 colon = system: KM12 colon
COLO 205 colon = system: COLO 205 colon
OVCAR-5 ovarian = system: OVCAR-5 ovarian
SN12C renal = system: SN12C renal
NCI-H23 lung = system: NCI-H23 lung
RPMI-8226 leukemia = system: RPMI-8226 leukemia
NCI/ADR-RES ovarian = system: NCI/ADR-RES ovarian
HCC-2998 colon = system: HCC-2998 colon
MDA-MB-435 = system: MDA-MB-435
UACC-62 melanoma = system: UACC-62 melanoma
SW-620 colon = system: SW-620 colon
CAKI-1 renal = system: CAKI-1 renal
P388/ADR leukemia = system: P388/ADR leukemia
DMS 273 small cell lung = system: DMS 273 small cell lung
HOP-92 NSCLC = system: HOP-92 NSCLC
SN12K1 renal = system: SN12K1 renal
SK-MEL-2 melanoma = system: SK-MEL-2 melanoma
SNB-19 CNS = system: SNB-19 CNS
OVCAR-4 ovarian = system: OVCAR-4 ovarian
LOX IMVI melanoma = system: LOX IMVI melanoma
SK-MEL-28 melanoma = system: SK-MEL-28 melanoma
DMS 114 small cell lung = system: DMS 114 small cell lung
TK-10 renal = system: TK-10 renal
SNB-78 CNS = system: SNB-78 CNS
U251 CNS = system: U251 CNS
HT29 colon = system: HT29 colon
SK-OV-3 ovarian = system: SK-OV-3 ovarian
RXF 393 renal = system: RXF 393 renal
786-0 renal = system: 786-0 renal
EKVX NSCLC = system: EKVX NSCLC
KM20L2 colon = system: KM20L2 colon
K-562 leukemia = system: K-562 leukemia
NCI-H460 lung = system: NCI-H460 lung
ACHN renal = system: ACHN renal
HL-60(TB) leukemia = system: HL-60(TB) leukemia
MDA-MB-231 breast = system: MDA-MB-231 breast
NCI-H226 lung = system: NCI-H226 lung
UACC-257 melanoma = system: UACC-257 melanoma
P388 leukemia = system: P388 leukemia
HOP-62 NSCLC = system: HOP-62 NSCLC
HCT-15 colon = system: HCT-15 colon
HS 578T breast = system: HS 578T breast
MOLT-4 leukemia = system: MOLT-4 leukemia
T-47D breast = system: T-47D breast
A549 NSCLC = system: A549 NSCLC
SK-MEL-5 melanoma = system: SK-MEL-5 melanoma
MDA-N = system: MDA-N
M19-MEL melanoma = system: M19-MEL melanoma
OVCAR-8 ovarian = system: OVCAR-8 ovarian
PC-3 prostate = system: PC-3 prostate
MALME-3M melanoma = system: MALME-3M melanoma
MCF7 breast = system: MCF7 breast
SF-295 CNS = system: SF-295 CNS
CCRF-CEM leukemia = system: CCRF-CEM leukemia
A498 renal = system: A498 renal
DU-145 prostate = system: DU-145 prostate
SNB-75 CNS = system: SNB-75 CNS
BT-549 breast = system: BT-549 breast
IGROV1 ovarian = system: IGROV1 ovarian
HOP-18 NSCLC = system: HOP-18 NSCLC
SR leukemia = system: SR leukemia
UO-31 renal = system: UO-31 renal
M14 melanoma = system: M14 melanoma
HCT-116 colon = system: HCT-116 colon
XF 498 CNS = system: XF 498 CNS
LXFL 529 NSCLC = system: LXFL 529 NSCLC
RXF-631 renal = system: RXF-631 renal

`Nc1ccc2c(c1)CN1C(=O)c3ccccc3C1=N2` was tested, and the TGI (DLD-1 colon) was over 125 µM, the GI50 (NCI-H522 lung) was 12.8 µM and the TGI (NCI-H522 lung) was 112 µM. The GI50 (OVCAR-3 ovarian) was 98.8 µM, the TGI (OVCAR-3 ovarian) was over 125 µM and the GI50 (SF-539 CNS) was 5.29 µM. For the same compound, the TGI (SF-539 CNS) was 95.8 µM, the GI50 (SF-268 CNS) was 58.6 µM and the TGI (SF-268 CNS) was 108 µM. The GI50 (KM12 colon) was 37.9 µM, the TGI (KM12 colon) was over 125 µM and the GI50 (COLO 205 colon) was 33.9 µM. It also gave a TGI (COLO 205 colon) of over 125 µM, a TGI (OVCAR-5 ovarian) of over 112 µM and a GI50 (SN12C renal) of 44.8 µM. For the same compound, the TGI (SN12C renal) was over 125 µM, the TGI (NCI-H23 lung) was over 125 µM and the GI50 (RPMI-8226 leukemia) was 34.1 µM. It also gave a TGI (RPMI-8226 leukemia) of over 125 µM, a TGI (NCI/ADR-RES ovarian) of over 125 µM and a TGI (HCC-2998 colon) of over 125 µM. It also gave a TGI (MDA-MB-435) of over 125 µM, a GI50 (UACC-62 melanoma) of 52.9 µM and a TGI (UACC-62 melanoma) of over 116 µM. For the same compound, the TGI (SW-620 colon) was over 125 µM, the TGI (CAKI-1 renal) was over 70.3 µM and the TGI (P388/ADR leukemia) was over 125 µM. For the same compound, the TGI (DMS 273 small cell lung) was over 125 µM, the GI50 (HOP-92 NSCLC) was 47.9 µM and the TGI (HOP-92 NSCLC) was 110 µM. It also gave a TGI (SN12K1 renal) of over 72.4 µM, a TGI (SK-MEL-2 melanoma) of over 125 µM and a GI50 (SNB-19 CNS) of 60.6 µM. It also gave a TGI (SNB-19 CNS) of 124 µM, a TGI (OVCAR-4 ovarian) of over 125 µM and a TGI (LOX IMVI melanoma) of over 125 µM. For the same compound, the TGI (SK-MEL-28 melanoma) was over 125 µM, the TGI (DMS 114 small cell lung) was over 125 µM and the GI50 (TK-10 renal) was 16.8 µM. It also gave a TGI (TK-10 renal) of over 125 µM, a TGI (SNB-78 CNS) of over 79.4 µM and a GI50 (U251 CNS) of 35.7 µM. For the same compound, the TGI (U251 CNS) was 121 µM, the GI50 (HT29 colon) was 19.2 µM and the TGI (HT29 colon) was over 125 µM. It also gave a GI50 (SK-OV-3 ovarian) of 46.5 µM, a TGI (SK-OV-3 ovarian) of over 122 µM and a TGI (RXF 393 renal) of 102 µM. It also gave a GI50 (786-0 renal) of 36.8 µM, a TGI (786-0 renal) of over 125 µM and a GI50 (EKVX NSCLC) of 72.2 µM. The TGI (EKVX NSCLC) was over 125 µM, the TGI (KM20L2 colon) was over 125 µM and the GI50 (K-562 leukemia) was 52.4 µM. For the same compound, the TGI (K-562 leukemia) was over 125 µM, the TGI (NCI-H460 lung) was over 125 µM and the GI50 (ACHN renal) was 34 µM. The TGI (ACHN renal) was over 125 µM, the GI50 (HL-60(TB) leukemia) was 15.5 µM and the TGI (HL-60(TB) leukemia) was over 125 µM. For the same compound, the TGI (MDA-MB-231 breast) was 123 µM, the GI50 (NCI-H226 lung) was 36.8 µM and the TGI (NCI-H226 lung) was over 117 µM. The GI50 (UACC-257 melanoma) was 67.5 µM, the TGI (UACC-257 melanoma) was over 125 µM and the TGI (P388 leukemia) was over 125 µM. It also gave a GI50 (HOP-62 NSCLC) of 45.7 µM, a TGI (HOP-62 NSCLC) of 23.8 µM and a GI50 (HCT-15 colon) of 42.4 µM. It also gave a TGI (HCT-15 colon) of over 125 µM, a TGI (HS 578T breast) of over 76 µM and a GI50 (MOLT-4 leukemia) of 19.2 µM. For the same compound, the TGI (MOLT-4 leukemia) was 96.5 µM and 58.2 µM, the TGI (T-47D breast) was over 125 µM and the TGI (A549 NSCLC) was over 125 µM. For the same compound, the TGI (SK-MEL-5 melanoma) was 90.9 µM, the TGI (MDA-N) was over 125 µM and the GI50 (M19-MEL melanoma) was 54.8 µM. The TGI (M19-MEL melanoma) was over 125 µM, the TGI (OVCAR-8 ovarian) was 115 µM and the TGI (PC-3 prostate) was over 125 µM. The TGI (MALME-3M melanoma) was over 125 µM, the TGI (MCF7 breast) was over 78.9 µM and the GI50 (SF-295 CNS) was 32.2 µM. It also gave a TGI (SF-295 CNS) of over 116 µM, a GI50 (CCRF-CEM leukemia) of 37.6 µM and a TGI (CCRF-CEM leukemia) of over 90 µM. It also gave a TGI (A498 renal) of 104 µM, a TGI (DU-145 prostate) of over 125 µM and a TGI (SNB-75 CNS) of 69.5 µM. For the same compound, the TGI (BT-549 breast) was over 125 µM, the GI50 (IGROV1 ovarian) was 51 µM and the TGI (IGROV1 ovarian) was 123 µM. It also gave a TGI (HOP-18 NSCLC) of over 125 µM, a GI50 (SR leukemia) of 26.4 µM and a TGI (SR leukemia) of over 125 µM. The GI50 (UO-31 renal) was 44 µM, the TGI (UO-31 renal) was over 125 µM and the TGI (M14 melanoma) was over 125 µM. It also gave a GI50 (HCT-116 colon) of 29.7 µM and a TGI (HCT-116 colon) of over 125 µM.

For `Cc1ns/c(=N\C(=S)N(C)C)n1C`, the TGI (DLD-1 colon) was over 100 µM, the TGI (NCI-H522 lung) was over 100 µM and the TGI (SF-539 CNS) was over 100 µM. It also gave a TGI (SF-268 CNS) of over 100 µM, a TGI (XF 498 CNS) of over 100 µM and a TGI (KM12 colon) of over 100 µM. It also gave a TGI (LXFL 529 NSCLC) of over 100 µM, a TGI (OVCAR-5 ovarian) of over 100 µM and a TGI (SN12C renal) of over 100 µM. For the same compound, the TGI (NCI-H23 lung) was over 100 µM, the TGI (RPMI-8226 leukemia) was over 100 µM and the TGI (HCC-2998 colon) was over 100 µM. For the same compound, the TGI (UACC-62 melanoma) was over 100 µM, the TGI (SW-620 colon) was over 100 µM and the TGI (CAKI-1 renal) was over 100 µM. The TGI (RXF-631 renal) was over 100 µM, the TGI (DMS 273 small cell lung) was over 100 µM and the TGI (HOP-92 NSCLC) was over 100 µM. It also gave a TGI (SK-MEL-2 melanoma) of over 100 µM, a TGI (SNB-19 CNS) of over 100 µM and a TGI (OVCAR-4 ovarian) of over 100 µM. For the same compound, the TGI (SK-MEL-28 melanoma) was over 100 µM, the TGI (DMS 114 small cell lung) was over 100 µM and the TGI (TK-10 renal) was over 100 µM. The TGI (SNB-78 CNS) was over 100 µM, the TGI (U251 CNS) was over 100 µM and the TGI (HT29 colon) was over 100 µM. It also gave a TGI (SK-OV-3 ovarian) of over 100 µM, a TGI (RXF 393 renal) of over 100 µM and a TGI (786-0 renal) of over 100 µM. The TGI (EKVX NSCLC) was over 100 µM, the TGI (KM20L2 colon) was over 100 µM and the TGI (K-562 leukemia) was over 100 µM. It also gave a TGI (NCI-H460 lung) of over 100 µM, a TGI (ACHN renal) of over 100 µM and a TGI (HL-60(TB) leukemia) of over 100 µM. It also gave a TGI (NCI-H226 lung) of over 100 µM, a TGI (UACC-257 melanoma) of over 100 µM and a TGI (HOP-62 NSCLC) of over 100 µM. For the same compound, the TGI (HCT-15 colon) was over 100 µM, the TGI (MOLT-4 leukemia) was over 100 µM and the TGI (A549 NSCLC) was over 100 µM. The TGI (SK-MEL-5 melanoma) was over 100 µM, the TGI (OVCAR-8 ovarian) was over 100 µM and the TGI (MALME-3M melanoma) was over 100 µM. It also gave a TGI (SF-295 CNS) of over 100 µM, a TGI (CCRF-CEM leukemia) of over 100 µM and a TGI (A498 renal) of over 100 µM. For the same compound, the TGI (SNB-75 CNS) was over 100 µM, the TGI (IGROV1 ovarian) was over 100 µM and the TGI (HOP-18 NSCLC) was over 100 µM. For the same compound, the TGI (SR leukemia) was over 100 µM, the TGI (UO-31 renal) was over 100 µM and the TGI (M14 melanoma) was over 100 µM. It also gave a TGI (HCT-116 colon) of over 100 µM.
